Structures can show the parent of a compound that is named as a salt. Where two headings read alike, the source gives them in different places.
Columns and labels:
Test in all cases: Post-emergence efficacy, glasshouse, evaluated after 13 days
Format in all cases: in vivo
Eleusine indica (ELEIN) = settings: for pest or weed control at 500 g/ha: Eleusine indica, 312 h, read-out: Control of weed species ELEIN (100=total damage to plant; 0=no damage to plant)
Summary of the method: (§1)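 Foliar application to young plants (14 d post-sowing) in standard soil. Growth conditions before and after: 24/16 °C, 14 h light, 65% humidity. Percent damage read at 13 days after treatment.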

[1] = tested on: Echinochloa crus-galli (ECHCG); settings: for pest or weed control at 500 g/ha: Echinochloa crus-galli, 312 h, read-out: Control of weed species ECHCG (100=total damage to plant; 0=no damage to plant)
Summary of the method: as §1

[2] = tested on: Digitaria sanguinalis (DIGSA); settings: for pest or weed control at 500 g/ha: Digitaria sanguinalis, 312 h, read-out: Control of weed species DIGSA (100=total damage to plant; 0=no damage to plant)
Summary of the method: as §1

[3] = tested on: Amaranthus palmeri (AMAPA); settings: for pest or weed control at 500 g/ha: Amaranthus palmeri, 312 h, read-out: Control of weed species AMAPA (100=total damage to plant; 0=no damage to plant)
Summary of the method: as §1

[4] = tested on: Ipomoea hederacea (IPOHE); settings: for pest or weed control at 500 g/ha: Ipomoea hederacea, 312 h, read-out: Control of weed species IPOHE (100=total damage to plant; 0=no damage to plant)
Summary of the method: as §1

Lolium perenne (LOLPE) = settings: for pest or weed control at 500 g/ha: Lolium perenne, 312 h, read-out: Control of weed species LOLPE (100=total damage to plant; 0=no damage to plant)
Summary of the method: as §1

[5] = tested on: Euphorbia heterophylla (EPHHL); settings: for pest or weed control at 500 g/ha: Euphorbia heterophylla, 312 h, read-out: Control of weed species EPHHL (100=total damage to plant; 0=no damage to plant)
Summary of the method: as §1

Setaria faberi (SETFA) = settings: for pest or weed control at 500 g/ha: Setaria faberi, 312 h, read-out: Control of weed species SETFA (100=total damage to plant; 0=no damage to plant)
Summary of the method: as §1

[6] = tested on: Chenopodium album (CHEAL); settings: for pest or weed control at 500 g/ha: Chenopodium album, 312 h, read-out: Control of weed species CHEAL (100=total damage to plant; 0=no damage to plant)
Summary of the method: as §1

[7] = post-emergence application, 500 g/Ha, evaluated after 13 days

Row | SMILES | pest or weed control at 500 g/ha (Eleusine indica (ELEIN); [7]) | pest or weed control at 500 g/ha [1, 7] | pest or weed control at 500 g/ha [2, 7] | pest or weed control at 500 g/ha [3, 7] | pest or weed control at 500 g/ha [4, 7] | pest or weed control at 500 g/ha (Lolium perenne (LOLPE); [7]) | pest or weed control at 500 g/ha [5, 7] | pest or weed control at 500 g/ha (Setaria faberi (SETFA); [7]) | pest or weed control at 500 g/ha [6, 7] | further results
1 | CCNC(=O)c1cc[n+](CCOS(=O)(=O)[O-])nc1 [Compound A80] | 90% | 90% | 90% | 100% | 70% | 70% | 90% | 80% | 100% | 
2 | CN(NC(=O)c1cc[n+](CCC(=O)O)nc1)C(=O)OC(C)(C)C.O=C([O-])C(F)(F)F [Compound A72] |  |  |  |  |  |  |  |  |  | Control of weed species ELEIN (100=total damage to plant; 0=no damage to plant) (Eleusine indica (ELEIN); [7]): 30; Control of weed species ECHCG (100=total damage to plant; 0=no damage to plant) [1, 7]: 20; Control of weed species DIGSA (100=total damage to plant; 0=no damage to plant) [2, 7]: 40; Control of weed species AMAPA (100=total damage to plant; 0=no damage to plant) [3, 7]: 100; Control of weed species IPOHE (100=total damage to plant; 0=no damage to plant) [4, 7]: 20; Control of weed species LOLPE (100=total damage to plant; 0=no damage to plant) (Lolium perenne (LOLPE); [7]): 20; Control of weed species EPHHL (100=total damage to plant; 0=no damage to plant) [5, 7]: 20; Control of weed species SETFA (100=total damage to plant; 0=no damage to plant) (Setaria faberi (SETFA); [7]): 20; Control of weed species CHEAL (100=total damage to plant; 0=no damage to plant) [6, 7]: 20
3 | CNC(=O)c1cn[n+](CCS(=O)(=O)[O-])cc1-c1ccccc1 [Compound A39] | 50% | 40% | 40% | 70% | 20% | 10% | 50% | 30% | 70% | 
4 | CC1(C)CC(CCNC(=O)c2cc[n+](CCC(=O)O)nc2)=NO1 [Compound A148, 3-[4-[2-(5,5-dimethyl-4H-isoxazol-3-yl)ethylcarbamoyl]pyridazin-1-ium-1-yl]propanoic acid 2,2,2-trifluoroacetate] | 30% | 30% | 80% | 70% | 30% | 30% | 40% | 50% | 90% | 
5 | CCSCCNC(=O)c1cc[n+](CCC(=O)O)nc1 [Compound A120] | 50% | 50% | 100% | 100% | 10% | 40% | 90% | 70% | 80% | 
6 | O=C(O)CC[n+]1ccc(C(=O)NCCc2ncccn2)cn1 [Compound A145] | 100% | 60% | 100% | 100% | 30% | 70% | 0% | 80% | 100% | 
7 | O=C(O)CC[n+]1ccc(C(=O)NC2(C(F)(F)F)CC2)cn1 [Compound A94] | 100% | 80% | 90% | 100% | 60% | 80% | 90% | 90% | 100% | 
8 | CCNC(=O)c1cc[n+](C(C)(C)CC(=O)O)nc1 [Compound A71] | 30% | 30% | 60% | 100% | 60% | 30% | 20% | 30% | 70% | 
9 | O=C(O)CC[n+]1ccc(C(=O)NCC(F)(F)C(F)(F)F)cn1 [Compound A97] | 60% | 60% | 90% | 100% | 30% | 90% | 90% | 90% | 100% | 
10 | C[S+]([O-])CCNC(=O)c1cc[n+](CCC(=O)O)nc1 (stereo not drawn) [Compound A103] | 90% | 80% | 90% | 90% | 50% | 40% | 50% | 100% | 90% | 
11 | O=C(O)CC[n+]1ccc(C(=O)N2CCCCC2)cn1 [Compound A24, 3-[4-(piperidine-1-carbonyl)pyridazin-1-ium-1-yl]propanoic acid trifluoroacetate] |  |  |  |  |  |  |  |  |  | pest or weed control at 500 g/ha (Eleusine indica (ELEIN); post-emergence): 60%; pest or weed control at 500 g/ha ([1]; post-emergence): 60%; pest or weed control at 500 g/ha ([2]; post-emergence): 70%; pest or weed control at 500 g/ha ([3]; post-emergence): 100%; pest or weed control at 500 g/ha ([4]; post-emergence): 30%; pest or weed control at 500 g/ha (Lolium perenne (LOLPE); post-emergence): 30%; pest or weed control at 500 g/ha ([5]; post-emergence): 90%; pest or weed control at 500 g/ha (Setaria faberi (SETFA); post-emergence): 60%; pest or weed control at 500 g/ha ([6]; post-emergence): 90%
12 | O=C(O)CC[n+]1ccc(C(=O)NCc2ccc(C(F)(F)F)cc2)cn1 [Compound A98] | 90% | 50% | 60% | 90% | 20% | 0% | 100% | 30% | 70% | 
13 | CS(=O)(=O)CCNC(=O)c1cc[n+](CCC(=O)O)nc1 [Compound A104] | 100% | 70% | 100% | 100% | 80% | 70% | 100% | 100% | 100% | 
14 | O=C(O)CC[n+]1ccc(C(=O)NCc2ccccn2)cn1 [Compound A115] | 100% | 70% | 70% | 100% | 20% | 70% | 70% | 70% | 70% | 
15 | CC(C)CNC(=O)c1cc[n+](CCC(=O)O)nc1 [Compound A35] | 100% | 60% | 80% | 100% | 50% | 70% | 100% | 90% | 90% | 
16 | CC(CS(C)(=O)=O)NC(=O)c1cc[n+](CCC(=O)O)nc1 (stereo not drawn) [Compound A122] | 70% | 90% | 100% | 100% | 60% | 60% | 70% | 60% | 90% | 

From patent US20210403435A1, “HERBICIDAL COMPOUNDS” (SYNGENTA CROP PROTECTION AG, priority 2018, published 2021)
